Read-outs that look alike come from different tables or passages of the source.
Assays:
[1] = target: T1, c-Met (baculovirus expressed human c-Met kinase domain P948-S1343) (Homo sapiens, UniProt P08581); assay: c-Met Luciferase-Coupled Chemiluminescent Kinase assay (LCCA); type: biochemical;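 also: kinase activity read as percent ATP left after reaction, by luciferase-luciferin chemiluminescence, with 1 µM ATP and 1 µM poly-EY substrate, 2 h at ambient temperature, 10-point dose-response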
T1 construct: human c-Met kinase domain P948-S1343; host or cells: baculovirus expression

[2] = target: T2, KDR (baculovirus expressed human KDR kinase domain D807-V1356) (Homo sapiens, UniProt P35968); assay: biochemical;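 also: Luciferase-coupled chemiluminescent kinase assay, activity read as percent ATP left after 4 h reaction at ambient temperature, ATP near KM, 10-point dose-response in 384-well plates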
T2 construct: human KDR kinase domain D807-V1356; host or cells: baculovirus expression

[3] = Table 4, inhibition as IC50 class

T1 sequence (P08581 1011-1343 limits assumed): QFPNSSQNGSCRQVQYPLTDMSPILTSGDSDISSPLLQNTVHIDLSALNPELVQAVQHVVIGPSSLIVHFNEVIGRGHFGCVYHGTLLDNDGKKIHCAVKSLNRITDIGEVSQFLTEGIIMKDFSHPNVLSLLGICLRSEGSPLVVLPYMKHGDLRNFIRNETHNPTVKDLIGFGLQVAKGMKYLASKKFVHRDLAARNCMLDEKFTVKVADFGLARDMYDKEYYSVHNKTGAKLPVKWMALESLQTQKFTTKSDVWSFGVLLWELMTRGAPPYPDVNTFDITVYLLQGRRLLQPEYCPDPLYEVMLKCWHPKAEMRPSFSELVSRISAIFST
T2 sequence (P35968 807-1356): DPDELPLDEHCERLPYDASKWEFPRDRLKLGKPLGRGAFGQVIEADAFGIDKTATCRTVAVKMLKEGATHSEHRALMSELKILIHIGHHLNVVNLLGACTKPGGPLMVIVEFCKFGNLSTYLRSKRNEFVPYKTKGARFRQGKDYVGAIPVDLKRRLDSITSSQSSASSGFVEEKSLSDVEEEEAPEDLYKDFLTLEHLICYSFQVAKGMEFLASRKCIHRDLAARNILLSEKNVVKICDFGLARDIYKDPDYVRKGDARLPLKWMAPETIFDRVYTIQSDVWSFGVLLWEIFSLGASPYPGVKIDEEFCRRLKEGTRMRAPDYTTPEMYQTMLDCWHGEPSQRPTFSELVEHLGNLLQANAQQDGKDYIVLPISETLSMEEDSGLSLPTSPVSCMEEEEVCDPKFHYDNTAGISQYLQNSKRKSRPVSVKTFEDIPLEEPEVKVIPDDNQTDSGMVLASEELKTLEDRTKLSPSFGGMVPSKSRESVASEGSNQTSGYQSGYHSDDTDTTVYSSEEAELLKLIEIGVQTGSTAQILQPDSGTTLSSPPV

| Compound | IC50 [1] | IC50 [2] | IC50 [1, 3] | IC50 [2, 3] |
| --- | --- | --- | --- | --- |
| COc1cc2nccc(Oc3ccc(NC4=NC(Cc5ccccc5)CO4)cc3)c2cc1OC (stereo not drawn) [Example 114, N-(4-{[6,7-bis(methyloxy)quinolin-4-yl]oxy}phenyl)-4-(phenylmethyl)-4,5-dihydro-1,3-oxazol-2-amine] | 500 to 5000 nM | 50 to 500 nM | – | – |
| COc1cc2nccc(Oc3ccc(N4CCN(Cc5ccccc5)CC4)cc3)c2cc1OC [Example 115, 6,7-bis(methyloxy)-4-({4-[4-(phenylmethyl)piperazin-1-yl]phenyl}oxy)quinoline] | 500 to 5000 nM | 500 to 5000 nM | – | – |
| COc1cc2nccc(Oc3ccc(N4CCN(Cc5ccccc5)CC4=O)cc3)c2cc1OC [Example 116, 1-(4-{[6,7-bis(methyloxy)quinolin-4-yl]oxy}phenyl)-4-(phenylmethyl)piperazin-2-one] | 500 to 5000 nM | 500 to 5000 nM | – | – |
| COc1cc2nccc(Oc3ccc(NC(=O)C(C)NCc4ccccc4)cc3)c2cc1OC (stereo not drawn) [Example 117, N1-(4-{[6,7-bis(methyloxy)quinolin-4-yl]oxy}phenyl)-N2-(phenylmethy)alaninamide] | 500 to 5000 nM | 500 to 5000 nM | – | – |
| COc1cc2nccc(Oc3ccc(NC(=O)C(C)N(C)Cc4ccccc4)cc3)c2cc1OC (stereo not drawn) [Example 118, N1-(4-{[6,7-bis(methyloxy)quinolin-4-yl]oxy}phenyl)-N2-methyl-N2-(phenylmethyl) alaninamide] | 500 to 5000 nM | 500 to 5000 nM | – | – |
| COc1cc2nccc(Oc3ccc(NC(=O)[C@H](CC(C)C)NCc4ccccc4)cc3)c2cc1OC [Example 119, N1-(4-{[6,7-bis(methyloxy)quinolin-4-yl]oxy}phenyl)-N2-(phenylmethyl)leucinamide] | 500 to 5000 nM | 500 to 5000 nM | – | – |
| COc1cc2nccc(Oc3ccc(NC(=O)C(CC(C)C)N(C)Cc4ccccc4)cc3)c2cc1OC (stereo not drawn) [Example 120, N1-(4-{[6,7-bis(methyloxy)quinolin-4-yl]oxy}phenyl)-N2-methyl-N2-(phenylmethyl) leucinamide] | 500 to 5000 nM | 500 to 5000 nM | – | – |
| COc1cc2nccc(Oc3ccc(NC(=O)[C@@H](NCc4ccccc4)C(C)C)cc3)c2cc1OC [Example 121, N1-(4-{[6,7-bis(methyloxy)quinolin-4-yl]oxy}phenyl)-N2-(phenylmethyl)valinamide] | 500 to 5000 nM | 500 to 5000 nM | – | – |
| COc1cc2c(Oc3ccc(NC(=O)C(=O)NCCc4ccccc4)cc3F)ccnc2cc1OCC1CNC1 [Example 249, N-(4-{[7-[(azetidin-3-ylmethyl)oxy]-6-(methyloxy)quinolin-4-yl]oxy}-3-fluorophenyl)-N′-(2-phenylethyl)ethanediamide] | – | – | < 50 nM | < 50 nM |
| COc1cc2nccc(Oc3ncc(NC(=O)CC(=O)Nc4ccc(F)cc4F)cc3Cl)c2cc1OC [Example 252, N-(6-{[6,7-bis(methyloxy)quinolin-4-yl]oxy}-5-chloropyridin-3-yl)-N′-(2,4-difluorophenyl)propanediamide] | – | – | < 50 nM | 500 to 5000 nM |
| COc1cc2nccc(Oc3ncc(NC(=O)CC(=O)N(C)c4ccc(F)cc4)cc3Cl)c2cc1OC [Example 253, N′-(6-{[6,7-bis(methyloxy)quinolin-4-yl]oxy}-5-chloropyridin-3-yl)-N-(4-fluorophenyl)-N-methylpropanediamide] | – | – | 50 to 500 nM | 500 to 5000 nM |
| COc1cc2c(Oc3ccc(NC(=O)C(=O)NCc4ccc(Cl)cc4)cc3F)ccnc2cc1OCC1CCNCC1 [Example 268, N-[(4-chlorophenyl)methyl]-N′-[3-fluoro-4-({6-(methyloxy)-7-[(piperidin-4-ylmethyl)oxy]quinolin-4-yl}oxy)phenyl]ethanediamide] | – | – | < 50 nM | < 50 nM |
| COc1cc2nccc(Oc3ncc(NC(=O)C4(C(=O)NCCc5ccccc5)CC4)cc3Cl)c2cc1OC [Example 302, N-(6-{[6,7-bis(methyloxy)quinolin-4-yl]oxy}-5-chloropyridin-3-yl)-N′-(2-phenylethyl)cyclopropane-1,1-dicarboxamide] | 500 to 5000 nM | 500 to 5000 nM | – | – |
| COc1cc2nc(SC)cc(Oc3ccc(NC(=O)C4(C(=O)Nc5ccc(F)cc5)CC4)cc3F)c2cc1OC [Example 338, N-(4-{[6,7-bis(methyloxy)-2-(methylthio)quinolin-4-yl]oxy}-3-fluorophenyl)-N′-(4-fluorophenyl)cyclopropane-1,1-dicarboxamide] | 500 to 5000 nM | 500 to 5000 nM | – | – |
| COc1cc2nc(C)nc(Oc3ccc(NC(=O)C4(C(=O)Nc5ccc(F)cc5)CC4)cc3)c2cc1OC [Example 339, N-(4-fluorophenyl)-N′-(4-{[2-methyl-6,7-bis(methyloxy)quinazolin-4-yl]oxy}phenyl)cyclopropane-1,1-dicarboxamide] | 500 to 5000 nM | 500 to 5000 nM | – | – |
| COc1cc2nc(N)cc(Oc3ccc(NC(=O)C4(C(=O)Nc5ccc(F)cc5)CC4)cc3F)c2cc1OC [Example 340, N-(4-{[2-amino-6,7-bis(methyloxy)quinolin-4-yl]oxy}-3-fluorophenyl)-N′-(4-fluorophenyl)cyclopropane-1,1-dicarboxamide] | 500 to 5000 nM | 500 to 5000 nM | – | – |
| CNc1cc(Oc2ccc(NC(=O)C3(C(=O)Nc4ccc(F)cc4)CC3)cc2F)c2cc(OC)c(OC)cc2n1 [Example 341, N-(3-fluoro-4-{[2-(methylamino)-6,7-bis(methyloxy)quinolin-4-yl]oxy}phenyl)-N′-(4-fluorophenyl)cyclopropane-1,1-dicarboxamide] | 500 to 5000 nM | 500 to 5000 nM | – | – |
| N-{3-fluoro-4-[(7-(methyloxy)-6- {[(1-methylpiperidin-4- yl)methyl]oxy}quinazolin-4- yl)oxy]phenyl}-N′-(4- fluorophenyl)cyclopropane-1,1- dicarboxamide [Entry 31] | 500 to 5000 nM | – | – | – |

Further lines, results first:

| IC50 [1] | IC50 [2] | IC50 [1, 3] | IC50 [2, 3] | Compound |
| --- | --- | --- | --- | --- |
| 50 to 500 nM | – | – | – | COc1cc2nccc(Oc3ccc(N4CCN(C(=O)Cc5ccccc5)C4=O)cc3F)c2cc1OC [Entry 6] |
| 500 to 5000 nM | – | – | – | COc1cc2nccc(Oc3ccc(S(=O)(=O)N(C)CCCc4ccccc4)cc3F)c2cc1OC [Entry 25] |
| 500 to 5000 nM | – | – | – | COc1cc2nccc(Oc3cc4sc(NC(=O)CCc5ccccc5)nc4cc3F)c2cc1OC [Entry 53] |
| 500 to 5000 nM | – | – | – | COc1cc2nccc(Oc3ccc(NC(=O)C(=O)N[C@H]4CCc5ccccc5C4)cc3F)c2cc1OC [Entry 62] |
| 500 to 5000 nM | – | – | – | COc1cc2nccc(Oc3ccc(N(Cc4ccccc4)S(=O)(=O)NCc4ccccc4)cc3F)c2cc1OC [Entry 66] |
| 500 to 5000 nM | – | – | – | COc1cc2nccc(Oc3ncc(NC(=O)C(=O)NCCc4ccccc4)cc3Cl)c2cc1OC [Entry 69] |
| 500 to 5000 nM | – | – | – | COc1cc2nccc(Oc3ncc(NC(=O)CC(=O)Cc4ccccc4)cc3Cl)c2cc1OC [Entry 79] |
| 50 to 500 nM | – | – | – | COc1cc2nccc(Oc3cc4sc(NCCOc5ccccc5)nc4cc3F)c2cc1OC [Entry 81] |
| 500 to 5000 nM | – | – | – | COc1cc2nccc(Oc3cc4sc(N(C)CCc5ccccc5)nc4cc3F)c2cc1OC [Entry 83] |
| 500 to 5000 nM | – | – | – | COc1cc2nccc(Oc3cc4sc(NCCN5CCCC5)nc4cc3F)c2cc1OC [Entry 84] |
| 500 to 5000 nM | – | – | – | COc1cc2nccc(Oc3cc4sc(NCc5cccc(C(F)(F)F)c5)nc4cc3F)c2cc1OC [Entry 85] |
| 500 to 5000 nM | – | – | – | COc1cc2nccc(Oc3cc4sc(NCCc5cccc(C(F)(F)F)c5)nc4cc3F)c2cc1OC [Entry 86] |
| 500 to 5000 nM | – | – | – | COc1cc2nccc(Oc3ncc(NC(=O)CC(=O)Nc4cccc(C(F)(F)F)c4)cc3Cl)c2cc1OC [Entry 87] |
| 500 to 5000 nM | – | – | – | COc1cc2nccc(Oc3ncc(NC(=O)CN(Cc4ccccc4)C(=O)OC(C)(C)C)cc3Cl)c2cc1OC [Entry 92] |
| 500 to 5000 nM | – | – | – | COc1cc2nccc(Oc3ncc(NC(=O)CNCc4ccccc4)cc3Cl)c2cc1OC [Entry 93] |
| 500 to 5000 nM | – | – | – | COc1cc2nccc(Oc3ccc(NC(=O)CN(C)CCc4cccc(C(F)(F)F)c4)cc3F)c2cc1OC [Entry 100] |
| 50 to 500 nM | – | – | – | COc1cc2nccc(Oc3ncc(NC(=O)CC(=O)Nc4ccc(Cl)cc4)cc3Cl)c2cc1OC [Entry 107] |
| 50 to 500 nM | 50 to 500 nM | – | – | CO/N=C(\C)C(=O)Nc1ccc(Oc2ccnc3cc(OC)c(OC)cc23)cc1 [Example 108, (2E)-N-(4-{[6,7-bis(methyloxy)quinolin-4-yl]oxy}phenyl)-2-[(methyloxy)imino] propanamide] |
| 50 to 500 nM | < 50 nM | – | – | CCO/N=C(\C)C(=O)Nc1ccc(Oc2ccnc3cc(OC)c(OC)cc23)cc1 [Example 109, (2E)-N-(4-{[6,7-bis(methyloxy)quinolin-4-yl]oxy}phenyl)-2-[(ethyloxy)imino] propanamide] |
| 50 to 500 nM | 50 to 500 nM | – | – | COc1cc2nccc(Oc3ccc(NC(=O)/C(C)=N/OCc4ccccc4)cc3)c2cc1OC [Example 110, (2E)-N-(4-{[6,7-bis(methyloxy)quinolin-4-yl]oxy}phenyl)-2-{[(phenylmethyl)oxy]imino} propanamide] |
| 500 to 5000 nM | 500 to 5000 nM | – | – | COc1cc2nccc(Oc3ccc(NC(=O)[C@@H]4CCCN4Cc4ccccc4)cc3)c2cc1OC [Example 111, N-(4-{[6,7-bis(methyloxy)quinolin-4-yl]oxy}phenyl)-1-(phenylmethyl)prolinamide] |
| 500 to 5000 nM | 500 to 5000 nM | – | – | COc1cc2nccc(Oc3ccc(N4CC(Cc5ccccc5)NC4=O)cc3)c2cc1OC (stereo not drawn) [Example 113, 1-(4-{[6,7-bis(methyloxy)quinolin-4-yl]oxy}phenyl)-4-(phenylmethyl)imidazolidin-2-one] |
| 50 to 500 nM | 500 to 5000 nM | – | – | COc1cc2nccc(Oc3ncc(NC(=O)CC(=O)Nc4cccc(F)c4)cc3Cl)c2cc1OC [Example 290, N-(6-{[6,7-bis(methyloxy)quinolin-4-yl]oxy}-5-chloropyridin-3-yl)-N′-(3-fluorophenyl)propanediamide] |
| < 50 nM | < 50 nM | – | – | COc1cc2c(Oc3ccc(NC(=O)[C@]4(C(=O)Nc5ccc(F)cc5)C[C@H]4C)cc3F)ncnc2cc1OCCCN1CCOCC1 [Example 347, (1R,2R)-N-[3-fluoro-4-({6-(methyloxy)-7-[(3-morpholin-4-ylpropyl)oxy]quinazolin-4-yl}oxy)phenyl]-N′-(4-fluorophenyl)-2-methylcyclopropane-1,1-dicarboxamide] |
